# Source: patent US20130303509A1, “NAMPT INHIBITORS” (AbbVie Inc., priority 2012, published 2013)
# Test system: PC3 cells
# Assay: NAMPT Cell Proliferation Assay
# Assay type: cell-based
# Settings: Homo sapiens, PC-3, 120 h, 5 days incubation, cell viability by Cell Titer Glo
# Outline: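 Seeded at 500 cells/well in RPMI with 10% heat-inactivated FBS and left to attach overnight at 37° C, 5% CO2. Compounds were added as 10-fold dilutions […] for 5 days, then viability was read by CellTiter-Glo. IC50s came from sigmoidal fits of percent inhibition.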
row,Compound,IC50
1,"CC(C)(C(=O)N1CCC(Oc2ccc(NC(=O)C3CN(c4cccnn4)C3)cc2)CC1)c1ccccc1 [Example 217, N-(4-{[1-(2-methyl-2-phenylpropanoyl)piperidin-4-yl]oxy}phenyl)-1-(pyridazin-3-yl)azetidine-3-carboxamide]",2.55 nM
2,"O=C(Nc1ccc(OC2CCN(C(=O)c3cscn3)CC2)cc1)C1CN(c2cccnn2)C1 [Example 218, 1-(pyridazin-3-yl)-N-(4-{[1-(1,3-thiazol-4-ylcarbonyl)piperidin-4-yl]oxy}phenyl)azetidine-3-carboxamide]",8.86 nM
3,"Cc1ccc(C(=O)N2CCC(Oc3ccc(NC(=O)C4CN(c5cccnn5)C4)cc3)CC2)s1 [Example 219, N-[4-({1-[(5-methylthiophen-2-yl)carbonyl]piperidin-4-yl}oxy)phenyl]-1-(pyridazin-3-yl)azetidine-3-carboxamide]",8.86 nM
4,"O=C(Nc1ccc(OC2CCN(C(=O)Cc3ccc(C(F)(F)F)cc3)CC2)cc1)C1CN(c2cccnn2)C1 [Example 220, 1-(pyridazin-3-yl)-N-{4-[(1-{[4-(trifluoromethyl)phenyl]acetyl}piperidin-4-yl)oxy]phenyl}azetidine-3-carboxamide]",13.2 nM
5,"O=C(Nc1ccc(OC2CCN(C(=O)C3CCCO3)CC2)cc1)C1CN(c2cccnn2)C1 (stereo not shown) [Example 221, 1-(pyridazin-3-yl)-N-(4-{[1-(tetrahydrofuran-2-ylcarbonyl)piperidin-4-yl]oxy}phenyl)azetidine-3-carboxamide]",8.99 nM
6,"O=C(Nc1ccc(OC2CCN(C(=O)c3cccc(C(F)(F)F)c3)CC2)cc1)C1CN(c2cccnn2)C1 [Example 222, 1-(pyridazin-3-yl)-N-[4-({1-[3-(trifluoromethyl)benzoyl]piperidin-4-yl}oxy)phenyl]azetidine-3-carboxamide]",15.5 nM
7,"O=C(Nc1ccc(OC2CCN(C(=O)c3ccsc3)CC2)cc1)C1CN(c2cccnn2)C1 [Example 223, 1-(pyridazin-3-yl)-N-(4-{[1-(thiophen-3-ylcarbonyl)piperidin-4-yl]oxy}phenyl)azetidine-3-carboxamide]",5.5 nM
8,"O=C(Nc1ccc(OC2CCN(C(=O)c3cccc(OC(F)(F)F)c3)CC2)cc1)C1CN(c2cccnn2)C1 [Example 224, 1-(pyridazin-3-yl)-N-[4-({1-[3-(trifluoromethoxy)benzoyl]piperidin-4-yl}oxy)phenyl]azetidine-3-carboxamide]",7.52 nM
9,"CC(C)CC(=O)N1CCC(Oc2ccc(NC(=O)C3CN(c4cccnn4)C3)cc2)CC1 [Example 225, N-(4-{[1-(3-methylbutanoyl)piperidin-4-yl]oxy}phenyl)-1-(pyridazin-3-yl)azetidine-3-carboxamide]",8.76 nM
10,"O=C(Nc1ccc(OC2CCN(C(=O)C3CCOC3)CC2)cc1)C1CN(c2cccnn2)C1 (stereo not shown) [Example 226, 1-(pyridazin-3-yl)-N-(4-{[1-(tetrahydrofuran-3-ylcarbonyl)piperidin-4-yl]oxy}phenyl)azetidine-3-carboxamide]",8.89 nM
11,"O=C(Nc1ccc(OC2CCN(C(=O)Cc3cccc(F)c3)CC2)cc1)C1CN(c2cccnn2)C1 [Example 227, N-[4-({1-[(3-fluorophenyl)acetyl]piperidin-4-yl}oxy)phenyl]-1-(pyridazin-3-yl)azetidine-3-carboxamide]",4.53 nM
12,"O=C(Nc1ccc(OC2CCN(C(=O)c3ccccc3F)CC2)cc1)C1CN(c2cccnn2)C1 [Example 228, N-(4-{[1-(2-fluorobenzoyl)piperidin-4-yl]oxy}phenyl)-1-(pyridazin-3-yl)azetidine-3-carboxamide]",5.97 nM
13,"O=C(Nc1ccc(OC2CCN(C(=O)c3ccc(F)cc3F)CC2)cc1)C1CN(c2cccnn2)C1 [Example 229, N-(4-{[1-(2,4-difluorobenzoyl)piperidin-4-yl]oxy}phenyl)-1-(pyridazin-3-yl)azetidine-3-carboxamide]",6.46 nM
14,"O=C(Nc1ccc(OC2CCN(C(=O)c3ccc(F)cc3)CC2)cc1)C1CN(c2cccnn2)C1 [Example 230, N-(4-{[1-(4-fluorobenzoyl)piperidin-4-yl]oxy}phenyl)-1-(pyridazin-3-yl)azetidine-3-carboxamide]",9.05 nM
15,"O=C(Nc1ccc(OC2CCN(C(=O)c3cccc(F)c3)CC2)cc1)C1CN(c2cccnn2)C1 [Example 231, N-(4-{[1-(3-fluorobenzoyl)piperidin-4-yl]oxy}phenyl)-1-(pyridazin-3-yl)azetidine-3-carboxamide]",8.75 nM
16,"O=C(Nc1ccc(OC2CCN(C(=O)Cc3ccc(F)cc3)CC2)cc1)C1CN(c2cccnn2)C1 [Example 232, N-[4-({1-[(4-fluorophenyl)acetyl]piperidin-4-yl}oxy)phenyl]-1-(pyridazin-3-yl)azetidine-3-carboxamide]",8.74 nM
17,"O=C(Nc1ccc(OC2CCN(C(=O)CC3CC3)CC2)cc1)C1CN(c2cccnn2)C1 [Example 233, N-(4-{[1-(cyclopropylacetyl)piperidin-4-yl]oxy}phenyl)-1-(pyridazin-3-yl)azetidine-3-carboxamide]",8.73 nM
18,"O=C(Nc1ccc(OC2CCN(C(=O)c3ccc(F)c(F)c3)CC2)cc1)C1CN(c2cccnn2)C1 [Example 234, N-(4-{[1-(3,4-difluorobenzoyl)piperidin-4-yl]oxy}phenyl)-1-(pyridazin-3-yl)azetidine-3-carboxamide]",10.5 nM
19,"O=C(Nc1ccc(OC2CCN(C(=O)c3ccc(OC(F)(F)F)cc3)CC2)cc1)C1CN(c2cccnn2)C1 [Example 235, 1-(pyridazin-3-yl)-N-[4-({1-[4-(trifluoromethoxy)benzoyl]piperidin-4-yl}oxy)phenyl]azetidine-3-carboxamide]",12.4 nM
20,"O=C(Nc1ccc(OC2CCN(C(=O)Cc3ccc(F)cc3F)CC2)cc1)C1CN(c2cccnn2)C1 [Example 236, N-[4-({1-[(2,4-difluorophenyl)acetyl]piperidin-4-yl}oxy)phenyl]-1-(pyridazin-3-yl)azetidine-3-carboxamide]",9.25 nM
21,"O=C(Nc1ccc(OC2CCN(C(=O)c3ccc(C(F)(F)F)cc3)CC2)cc1)C1CN(c2cccnn2)C1 [Example 237, 1-(pyridazin-3-yl)-N-[4-({1-[4-(trifluoromethyl)benzoyl]piperidin-4-yl}oxy)phenyl]azetidine-3-carboxamide]",10.3 nM
22,"O=C(Nc1ccc(OC2CCN(C(=O)Cc3ccc(OC(F)(F)F)cc3)CC2)cc1)C1CN(c2cccnn2)C1 [Example 238, 1-(pyridazin-3-yl)-N-{4-[(1-{[4-(trifluoromethoxy)phenyl]acetyl}piperidin-4-yl)oxy]phenyl}azetidine-3-carboxamide]",15.7 nM
23,"O=C(Nc1ccc(OC2CCN(C(=O)Cc3cc(F)cc(F)c3)CC2)cc1)C1CN(c2cccnn2)C1 [Example 239, N-[4-({1-[(3,5-difluorophenyl)acetyl]piperidin-4-yl}oxy)phenyl]-1-(pyridazin-3-yl)azetidine-3-carboxamide]",6.7 nM
24,"O=C(Nc1ccc(OC2CCN(C(=O)Cc3cccc(C(F)(F)F)c3)CC2)cc1)C1CN(c2cccnn2)C1 [Example 240, 1-(pyridazin-3-yl)-N-{4-[(1-{[3-(trifluoromethyl)phenyl]acetyl}piperidin-4-yl)oxy]phenyl}azetidine-3-carboxamide]",10.3 nM
25,"CC(C)(C)C(=O)N1CCC(Oc2ccc(NC(=O)C3CN(c4cccnn4)C3)cc2)CC1 [Example 241, N-(4-{[1-(2,2-dimethylpropanoyl)piperidin-4-yl]oxy}phenyl)-1-(pyridazin-3-yl)azetidine-3-carboxamide]",7.73 nM
